US20220395522A1, “Methods of Use of Glucosamine for Increasing Nitrogen Retention” (TSI Bioproducts (Xuzhou) Co., Ltd., priority 2021, published 2022)

Test: Gastrointestinal Symptom Rating Scale (GSRS)
Format: in vivo, human
Settings: for Abdom Pain (combined score of GSRS 1, GSRS4, and GSRS5) / Diarrhea (combined score of GSRS11 and GSRS14) / GSRS1 Pain and discomfort in upper abdomen or stomach / GSRS2 Heartburn / GSRS3 Acid reflux / GSRS4 Hunger pangs / GSRS5 Nausea / GSRS6 Stomach rumbling / GSRS7 Stomach bloating / GSRS8 Burping / GSRS9 Passing gas or flatulence / GSRS11 Diarrhea / GSRS14 Urgent need to have a bowel movement / GSRS15 Sensation of not completely emptying the bowels / Ingestion (combined score of GSRS6, GSRS7, GSRS8, and GSRS9) / Reflux (combined score of GSRS2 and GSRS3) / Constipation (combined score of GSRS10, GSRS13, and GSRS14), 'Constipation Syndrome' / GSRS10 Constipation / GSRS13 Hard stools: GLU condition, mean ± SD; for Constipation (combined score of GSRS10, GSRS13, and GSRS14), 'Constipation Syndrome' / GSRS10 Constipation / GSRS13 Hard stools: hydrochloride
Excerpt: The remainder of the study consisted of two identical patterns of testing with the exception of what supplementation protocol was followed. FIG. 1 provides a flowchart of the experimental design. Prior to each visit, food and physical activity logs were completed encompassing four days prior to the scheduled laboratory visit. The four days consisted of two weekend days and two weekdays. Each participant reported to the laboratory for a baseline measurement of height, weight, heart rate, and blood pressure. During this visit, participants completed the Bristol Stool Chart and Gastrointestinal Symptom Rating Scale (GSRS) to assess bowel habits and potential gastrointestinal symptoms. Participants were given instructions on how to collect a stool sample and were instructed to do so within 24 hours of each planned study visit. At the completion of this study visit, participants were provided with their first assigned supplement (either PLA [placebo] or GLU [glucosamine]) and instructed to begin supplementation 21 days prior to their second visit. Participants were instructed to collect their second stool sample on the day of their final supplementation dose. On the morning of their second study visit, participants reported to the laboratory after following identical pre-study instructions as previous visits (i.e., fasting, abstention from caffeine and exercise). Study participants again completed assessments for height, weight, heart rate, blood pressure, and questionnaires regarding their bowel habits and gastrointestinal symptoms while also providing their second stool sample and turning in completed food and activity logs. A washout period lasting a minimum of 14 days and a maximum of 21 days separated each phase of the crossover as shown in FIG. 1. […] In a double-blind manner, a glucosamine supplement (GLU) or a maltodextrin placebo (PLA) was distributed in identical opaque capsules to all participants. On a daily basis, participants were instructed to ingest three capsules, each containing 1,000 mg of glucosamine hydrochloride (GlucosaGreen®, TSI Group Ltd. MT, USA) or a placebo (maltodextrin) identical in appearance for a total of 21 days. Each visit at the beginning of the supplementation regimen (Visits 1 and 4, respectively; See FIG. 1) occurred on or before the first day of supplementation while the final day of supplementation occurred the day before each participant's follow-up visit for that study period (Visits 2 and 4, respectively). Participants were instructed to ingest the supplement 15-30 minutes before breakfast with eight fluid ounces of cold water. In the case of a missed dose, participants were instructed to consume the missed dose as soon as possible with a meal. […] The dose of maltodextrin used in the following examples was two to five-fold lower, respectively, than these investigations. Participants completed electronic (Qualtrics, Inc.) versions of the Bristol Stool Chart and the Gastrointestinal Symptoms Rating Scale (GSRS) at four time points throughout the entire study protocol. The first two questionnaires were completed before and after the first supplementation period while the final two questionnaires were collected before and after the second supplementation period. The Bristol Stool Chart requires participants to classify their bowel movements into one of seven different types of stool. Type 1 was classified as being “Separate hard lumps, like nuts (hard to pass)”, Type 2 being “Sausage-shaped, lumpy, uncomfortable to pass”, Type 3 being “Like a sausage, with cracks on its surface”, Type 4 being “Like a sausage or snake, smooth and soft”, Type 5 being “Soft blobs with clear-cut edges, passes easily”, Type 6 being “Fluffy pieces with ragged edges, a mushy stool”, and Type 7 being “Watery, no solid pieces, entirely liquid”. The Gastrointestinal Symptoms Rating Scale (GSRS), a 15-item clinical rating scale was completed a total of four times to assess symptoms related to gastrointestinal distress during the past week. […]

[1] = Post 21 days, 3 x 1,000 mg/day oral

Question: Which “Abdom Pain (combined score of GSRS 1, GSRS4, and GSRS5)” value [1] does the source give for `Cl.N[C@H]1C(O)O[C@H](CO)[C@@H](O)[C@@H]1O` (stereo partly shown) [GLU, glucosamine hydrochloride] here?
Answer: 4.18 ± 1.66

Question: And the “Diarrhea (combined score of GSRS11 and GSRS14)” value [1]?
Answer: 3.27 ± 1.56

Question: And the “GSRS1 Pain and discomfort in upper abdomen or stomach” value [1]?
Answer: 1.5 ± 0.7

Question: And the “GSRS2 Heartburn” value [1]?
Answer: 1.2 ± 0.4

Question: And the “GSRS3 Acid reflux” value [1]?
Answer: 1.2 ± 0.4

Question: And the “GSRS4 Hunger pangs” value [1]?
Answer: 1.18 ± 0.4

Question: What about the “GSRS5 Nausea” value [1] of the same compound?
Answer: 1.55 ± 1.21

Question: What about the “GSRS6 Stomach rumbling” value [1] of the same compound?
Answer: 2.2 ± 1.3

Question: What about the “GSRS7 Stomach bloating” value [1] of the same compound?
Answer: 2.1 ± 1.22

Question: And the “GSRS8 Burping” value [1]?
Answer: 1.2 ± 0.4

Question: And the “GSRS9 Passing gas or flatulence” value [1]?
Answer: 2.46 ± 1.21

Question: And the “GSRS11 Diarrhea” value [1]?
Answer: 1.73 ± 1.56

Question: And the “GSRS14 Urgent need to have a bowel movement” value [1]?
Answer: 1.55 ± 0.93

Question: What about the “GSRS15 Sensation of not completely emptying the bowels” value [1] of the same compound?
Answer: 1.09 ± 0.3

Question: And the “Ingestion (combined score of GSRS6, GSRS7, GSRS8, and GSRS9)” value [1]?
Answer: 7.91 ± 2.98

Question: What about the “Reflux (combined score of GSRS2 and GSRS3)” value [1] of the same compound?
Answer: 2.36 ± 0.67

Question: What about the “Constipation (combined score of GSRS10, GSRS13, and GSRS14), 'Constipation Syndrome'” value [1] of the same compound?
Answer: 3.27±0.9

Question: And the “GSRS10 Constipation” value [1]?
Answer: 1.09±0.3

Question: What about the “GSRS13 Hard stools” value [1] of the same compound?
Answer: 1.09±0.3

Question: And the “Abdom Pain (combined score of GSRS 1, GSRS4, and GSRS5)” value (Pre (baseline))?
Answer: 4.27 ± 1.68

Question: And the “Diarrhea (combined score of GSRS11 and GSRS14)” value (Pre (baseline))?
Answer: 2.27 ± 0.9

Question: What about the “GSRS1 Pain and discomfort in upper abdomen or stomach” value (Pre (baseline)) of the same compound?
Answer: 1.2 ± 0.4

Question: And the “GSRS2 Heartburn” value (Pre (baseline))?
Answer: 1.1 ± 0.3

Question: What about the “GSRS3 Acid reflux” value (Pre (baseline)) of the same compound?
Answer: 1.0 ± 0.0

Question: And the “GSRS4 Hunger pangs” value (Pre (baseline))?
Answer: 1.82 ± 0.98

Question: What about the “GSRS5 Nausea” value (Pre (baseline)) of the same compound?
Answer: 1.27 ± 0.9

Question: And the “GSRS6 Stomach rumbling” value (Pre (baseline))?
Answer: 1.5 ± 0.69

Question: What about the “GSRS7 Stomach bloating” value (Pre (baseline)) of the same compound?
Answer: 1.9 ± 1.22

Question: What about the “GSRS8 Burping” value (Pre (baseline)) of the same compound?
Answer: 1.2 ± 0.4

Question: And the “GSRS9 Passing gas or flatulence” value (Pre (baseline))?
Answer: 1.82 ± 0.75

Question: What about the “GSRS11 Diarrhea” value (Pre (baseline)) of the same compound?
Answer: 1.0 ± 0.0

Question: And the “GSRS14 Urgent need to have a bowel movement” value (Pre (baseline))?
Answer: 1.27 ± 0.9

Question: And the “GSRS15 Sensation of not completely emptying the bowels” value (Pre (baseline))?
Answer: 1.73 ± 1.1

Question: What about the “Ingestion (combined score of GSRS6, GSRS7, GSRS8, and GSRS9)” value (Pre (baseline)) of the same compound?
Answer: 6.45 ± 2.5

Question: What about the “Reflux (combined score of GSRS2 and GSRS3)” value (Pre (baseline)) of the same compound?
Answer: 2.09 ± 0.3

Question: What about the “Constipation (combined score of GSRS10, GSRS13, and GSRS14), 'Constipation Syndrome'” value (Pre (baseline)) of the same compound?
Answer: 5.09±3.45

Question: And the “GSRS10 Constipation” value (Pre (baseline))?
Answer: 1.82±1.4

Question: And the “GSRS13 Hard stools” value (Pre (baseline))?
Answer: 1.55±1.04

Question: And the “Abdom Pain combined score, %” value (PLA vs. GLU, between-group)?
Answer: 4.2%

Question: And the “Constipation combined score, %” value (PLA vs. GLU, between-group)?
Answer: −33.3%

Question: And the “Diarrhea combined score, %” value (PLA vs. GLU, between-group)?
Answer: 30.6%

Question: What about the “GSRS1, %” value (PLA vs. GLU, between-group) of the same compound?
Answer: 31.3%

Question: And the “GSRS2, %” value (PLA vs. GLU, between-group)?
Answer: −0.9%

Question: And the “GSRS3, %” value (PLA vs. GLU, between-group)?
Answer: 20.0%

Question: What about the “GSRS4, %” value (PLA vs. GLU, between-group) of the same compound?
Answer: −11.3%

Question: And the “GSRS5, %” value (PLA vs. GLU, between-group)?
Answer: 35.4%

Question: What about the “GSRS6, %” value (PLA vs. GLU, between-group) of the same compound?
Answer: 37.6%

Question: And the “GSRS7, %” value (PLA vs. GLU, between-group)?
Answer: −30.7%

Question: What about the “GSRS8, %” value (PLA vs. GLU, between-group) of the same compound?
Answer: −10%

Question: And the “GSRS9, %” value (PLA vs. GLU, between-group)?
Answer: 8.8%

Question: What about the “GSRS10, %” value (PLA vs. GLU, between-group) of the same compound?
Answer: −64.9%

Question: And the “GSRS11, %” value (PLA vs. GLU, between-group)?
Answer: 55.0%

Question: What about the “GSRS13, %” value (PLA vs. GLU, between-group) of the same compound?
Answer: −15.5%

Question: What about the “GSRS14, %” value (PLA vs. GLU, between-group) of the same compound?
Answer: 13.0%

Question: What about the “GSRS15, %” value (PLA vs. GLU, between-group) of the same compound?
Answer: −23.8%

Question: And the “Ingestion combined score, %” value (PLA vs. GLU, between-group)?
Answer: −0.4%

Question: What about the “Reflux combined score, %” value (PLA vs. GLU, between-group) of the same compound?
Answer: 8.4%

Question: And the “Stomach bloating ratings (GSRS7), change from baseline” value (Post vs Pre, p=0.32)?
Answer: no changes were observed
